From ChEMBL document CHEMBL1201862, “PubChem BioAssay data set” (2004)
Values belong to the molecule of their own block, whether it stands above or below them. The source made the active and inactive calls.

How the values were obtained:
Ephrin type-A receptor 4 = Ephrin type-A receptor 4 (Mus musculus, UniProt Q03137); assay: EphA4 ligand-binding antagonists – biochemical, colorimetric, mouse EphA4, primary screen (AID 689); assay type: functional
[1] = target: T1, Mannose-6-phosphate isomerase (Homo sapiens, UniProt P34949); assay: MPI inhibition at elevated mannose 6-phosphate – biochemical, fluorescence intensity, high mannose 6-phosphate, primary screen (AID 1220)
T1 sequence (P34949 whole entry): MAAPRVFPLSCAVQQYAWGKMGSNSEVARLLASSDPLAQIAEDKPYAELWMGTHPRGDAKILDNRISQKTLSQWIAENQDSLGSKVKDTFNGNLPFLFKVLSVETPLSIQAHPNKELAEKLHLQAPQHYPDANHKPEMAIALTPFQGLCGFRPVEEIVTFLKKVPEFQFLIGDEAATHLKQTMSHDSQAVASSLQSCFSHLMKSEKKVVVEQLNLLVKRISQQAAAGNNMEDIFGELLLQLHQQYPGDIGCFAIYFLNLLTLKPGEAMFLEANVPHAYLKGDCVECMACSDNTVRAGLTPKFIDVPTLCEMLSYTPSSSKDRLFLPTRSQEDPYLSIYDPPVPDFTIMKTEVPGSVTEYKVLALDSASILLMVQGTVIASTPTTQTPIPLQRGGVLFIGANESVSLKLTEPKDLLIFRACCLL

Prothrombin = Prothrombin (Homo sapiens, UniProt P00734); assay: Thrombin 1536 HTS Dose Response Confirmation. [Related pubchem assays: 1046 (Thrombin 1536 HTS; hits were confirmed in this assay)]; assay type: functional
Protein Tat = target: T2, Protein Tat (Human immunodeficiency virus type 1 group M subtype B (isolate HXB2)(HIV-1), UniProt P04608); assay type: functional;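 further: tat binding to TAR RNA read out by fluorescence polarization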
T2 sequence (P04608 whole entry): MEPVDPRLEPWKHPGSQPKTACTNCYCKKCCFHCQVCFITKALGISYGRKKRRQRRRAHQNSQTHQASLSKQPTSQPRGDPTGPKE

[2] = target: Aryl hydrocarbon receptor (Homo sapiens, UniProt P35869); assay: Luminescence-based cell-based high throughput dose response assay for activators of the Aryl Hydrocarbon Receptor (AHR). [Related pubchem assays: 2796 (Primary screen (AHR activators in singlicate)), 2845 (Confirmation screen (AHR activators in triplicate)), 434939 (Counterscreen (PXR activators in triplicate)), 2804 (Summary (AHR activators))]; assay type: ADME
Chain of Aryl hydrocarbon receptor (P35869 whole entry): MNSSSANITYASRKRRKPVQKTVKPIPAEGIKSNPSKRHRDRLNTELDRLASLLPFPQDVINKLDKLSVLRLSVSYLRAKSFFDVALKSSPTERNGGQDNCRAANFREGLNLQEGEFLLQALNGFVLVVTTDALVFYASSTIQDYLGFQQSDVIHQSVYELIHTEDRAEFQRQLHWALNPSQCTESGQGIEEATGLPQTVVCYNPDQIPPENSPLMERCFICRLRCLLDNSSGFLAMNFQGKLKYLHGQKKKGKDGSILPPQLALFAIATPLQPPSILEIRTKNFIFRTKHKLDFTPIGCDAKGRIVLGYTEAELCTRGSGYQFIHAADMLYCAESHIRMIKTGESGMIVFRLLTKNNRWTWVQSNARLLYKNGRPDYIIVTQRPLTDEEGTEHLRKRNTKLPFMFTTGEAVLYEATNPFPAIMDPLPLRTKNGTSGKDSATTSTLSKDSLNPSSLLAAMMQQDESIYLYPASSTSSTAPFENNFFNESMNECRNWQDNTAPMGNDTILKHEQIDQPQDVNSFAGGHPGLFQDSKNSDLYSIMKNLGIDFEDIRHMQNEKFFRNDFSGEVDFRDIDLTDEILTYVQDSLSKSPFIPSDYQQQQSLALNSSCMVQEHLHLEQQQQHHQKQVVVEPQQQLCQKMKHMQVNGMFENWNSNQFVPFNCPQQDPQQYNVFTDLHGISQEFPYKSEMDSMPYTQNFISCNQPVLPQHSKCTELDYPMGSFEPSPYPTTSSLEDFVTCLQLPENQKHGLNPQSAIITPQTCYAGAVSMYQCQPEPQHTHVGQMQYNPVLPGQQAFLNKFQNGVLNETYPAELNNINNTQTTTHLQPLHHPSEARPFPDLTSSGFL

[3] = tested on: Streptococcus sp. 'group A'; assay: Streptococcus pyogenes SK(-)GAS viability under kanamycin – luminescence, BacTiterGlo, confirmation, counter-screen for streptokinase expression inhibitor project, dose response (AID 1900); assay type: functional, organism-based
[4] = target: T3, High affinity choline transporter 1 (Homo sapiens, UniProt Q9GZV3); assay: human choline transporter blockers, potency – cell-based, 5-point CRC, membrane potential dye, dose response (AID 504840); assay type: functional
T3 sequence (Q9GZV3 whole entry): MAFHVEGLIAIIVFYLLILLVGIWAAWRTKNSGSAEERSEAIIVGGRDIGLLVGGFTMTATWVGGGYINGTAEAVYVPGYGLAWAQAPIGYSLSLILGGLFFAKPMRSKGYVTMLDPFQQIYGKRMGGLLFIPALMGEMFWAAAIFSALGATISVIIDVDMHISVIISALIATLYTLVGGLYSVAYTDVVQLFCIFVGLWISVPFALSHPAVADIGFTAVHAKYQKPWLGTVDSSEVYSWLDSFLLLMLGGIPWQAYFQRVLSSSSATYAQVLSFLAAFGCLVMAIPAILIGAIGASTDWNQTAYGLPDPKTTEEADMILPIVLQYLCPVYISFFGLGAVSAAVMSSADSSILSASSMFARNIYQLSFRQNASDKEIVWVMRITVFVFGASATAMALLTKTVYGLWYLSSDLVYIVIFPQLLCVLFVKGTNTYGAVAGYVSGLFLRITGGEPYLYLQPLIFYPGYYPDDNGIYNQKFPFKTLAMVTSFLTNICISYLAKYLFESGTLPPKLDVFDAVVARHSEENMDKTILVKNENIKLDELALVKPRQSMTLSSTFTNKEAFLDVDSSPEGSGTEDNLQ

Streptococcus = assay: GAS UMAA2166 growth inhibition – luminescence, BacTiterGlo, counter-screen for streptokinase expression inhibitor project, dose response (AID 1915); assay type: functional, organism-based;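 further: potency for reduction of bacterial viability or growth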
X-box-binding protein 1 = X-box-binding protein 1 (Homo sapiens, UniProt P17861); assay type: functional, Cricetulus griseus;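 further: confirmatory dose-response counter-screen serving a CHOP assay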
Chain of X-box-binding protein 1 (P17861 whole entry): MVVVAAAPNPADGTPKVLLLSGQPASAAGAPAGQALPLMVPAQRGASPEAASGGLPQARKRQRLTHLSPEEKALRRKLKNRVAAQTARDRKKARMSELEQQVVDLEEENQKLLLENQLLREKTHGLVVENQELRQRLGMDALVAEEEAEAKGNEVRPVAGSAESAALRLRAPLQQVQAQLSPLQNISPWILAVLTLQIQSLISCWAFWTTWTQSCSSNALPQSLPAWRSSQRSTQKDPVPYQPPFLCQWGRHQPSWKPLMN

[5] = NIH3T3 cell viability loss – ATP luminescence, mouse fibroblasts, counter-screen, dose response (AID 2010); assay type: functional, cell-based;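 further: cells exposed to compound for about 90 hours before reading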
[6] = target: E3 ubiquitin-protein ligase Mdm2 (Homo sapiens, UniProt Q00987); assay: MDM2-luc reporter signal enhancers, multi-concentration potency testing, MDM2 ubiquitin-protein ligase inhibitor program, whole-cell format, luminescence detection, 384-well microplate (AID 1394); assay type: functional;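 further: MDM2 E3 inhibitors raise luminescence so EC50 is for signal enhancement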
Chain of E3 ubiquitin-protein ligase Mdm2 (Q00987 whole entry): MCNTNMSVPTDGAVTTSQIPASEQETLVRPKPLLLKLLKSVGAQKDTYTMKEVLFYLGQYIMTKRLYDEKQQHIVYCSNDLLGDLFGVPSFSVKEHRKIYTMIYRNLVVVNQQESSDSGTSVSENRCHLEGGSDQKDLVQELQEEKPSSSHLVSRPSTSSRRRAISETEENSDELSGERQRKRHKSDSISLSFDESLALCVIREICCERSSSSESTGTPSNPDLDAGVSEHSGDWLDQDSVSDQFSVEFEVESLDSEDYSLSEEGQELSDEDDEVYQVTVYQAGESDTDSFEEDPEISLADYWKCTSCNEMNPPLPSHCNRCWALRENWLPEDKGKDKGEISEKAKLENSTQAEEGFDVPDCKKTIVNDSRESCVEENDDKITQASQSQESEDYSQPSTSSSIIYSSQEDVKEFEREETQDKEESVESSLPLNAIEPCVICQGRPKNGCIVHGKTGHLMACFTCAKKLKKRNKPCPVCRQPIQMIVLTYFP

[7] = Trypanosoma cruzi growth suppression in host cells – NIH3T3 host cells, beta-gal luminescence, confirmation (AID 2044); assay type: functional, cell-based;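 further: intracellular parasites grown in NIH/3T3 mouse fibroblasts as host cells; luminescent beta-galactosidase reporter signal from transgenic T. cruzi replicating inside host cells; inhibitors lower the luminescence signal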
[8] = target: Sphingosine 1-phosphate receptor 2 (Homo sapiens, UniProt O95136); assay: Dose Response Cell Based Assay for Agonists of the S1P2 Receptor. [Related pubchem assays: 729, 736, 843 ]; assay type: functional
Chain of Sphingosine 1-phosphate receptor 2 (O95136 whole entry): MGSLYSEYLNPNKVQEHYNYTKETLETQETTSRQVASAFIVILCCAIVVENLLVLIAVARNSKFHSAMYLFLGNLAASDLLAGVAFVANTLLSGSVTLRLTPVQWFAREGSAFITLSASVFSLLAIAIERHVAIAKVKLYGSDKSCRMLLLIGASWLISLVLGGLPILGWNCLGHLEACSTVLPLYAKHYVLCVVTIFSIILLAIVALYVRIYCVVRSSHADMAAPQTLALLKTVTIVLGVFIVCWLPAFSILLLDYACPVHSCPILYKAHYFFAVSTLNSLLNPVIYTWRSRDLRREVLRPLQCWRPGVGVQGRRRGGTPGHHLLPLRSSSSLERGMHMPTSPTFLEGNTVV

[9] = target: T4, Tyrosine-protein phosphatase non-receptor type 7 (Homo sapiens, UniProt P35236); assay: HePTP tyrosine phosphatase activity blockers – biochemical, absorbance, leukemia target, primary screen (AID 521); assay type: functional
T4 sequence (P35236 whole entry): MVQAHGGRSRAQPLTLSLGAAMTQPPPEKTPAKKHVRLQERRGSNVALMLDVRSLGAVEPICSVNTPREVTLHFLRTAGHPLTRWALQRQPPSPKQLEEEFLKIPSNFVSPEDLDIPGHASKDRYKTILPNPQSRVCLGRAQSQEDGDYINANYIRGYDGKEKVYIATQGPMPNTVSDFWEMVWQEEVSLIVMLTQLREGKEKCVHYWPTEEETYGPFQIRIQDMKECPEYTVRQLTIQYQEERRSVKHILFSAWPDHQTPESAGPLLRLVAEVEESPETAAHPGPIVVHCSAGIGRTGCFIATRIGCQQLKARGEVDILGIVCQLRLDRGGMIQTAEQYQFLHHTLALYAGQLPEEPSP

Cytochrome P450 2C19 = Cytochrome P450 2C19 (Homo sapiens, UniProt P33261); assay: qHTS Assay for Inhibitors and Substrates of Cytochrome P450 2C19. [Related pubchem assays: 410 ]; assay type: ADME; settings: read-out: Potency
Chain of Cytochrome P450 2C19 (P33261 whole entry): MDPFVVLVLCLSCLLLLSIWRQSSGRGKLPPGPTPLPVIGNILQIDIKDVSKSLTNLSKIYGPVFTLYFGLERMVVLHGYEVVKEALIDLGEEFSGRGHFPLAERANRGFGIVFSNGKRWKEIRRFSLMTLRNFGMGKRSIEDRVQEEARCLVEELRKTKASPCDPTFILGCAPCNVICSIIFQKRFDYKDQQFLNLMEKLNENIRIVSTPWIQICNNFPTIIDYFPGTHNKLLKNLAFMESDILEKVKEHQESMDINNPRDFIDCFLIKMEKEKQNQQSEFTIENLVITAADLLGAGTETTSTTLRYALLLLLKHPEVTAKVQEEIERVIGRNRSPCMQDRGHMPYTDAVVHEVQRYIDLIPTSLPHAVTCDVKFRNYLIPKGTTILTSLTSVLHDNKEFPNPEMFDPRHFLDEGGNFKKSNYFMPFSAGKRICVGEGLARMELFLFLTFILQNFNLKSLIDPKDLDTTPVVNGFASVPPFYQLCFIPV

[10] = target: Heat shock protein HSP 90-alpha (Homo sapiens, UniProt P07900); assay: Luminescence-based dose response biochemical high throughput screening assay for inhibitors of the Heat Shock Protein 90 (HSP90). [Related pubchem assays: 1831 (Summary AID.), 1846 (Confirmation screen.), 1789 (Primary screen.)]

Chain of Ephrin type-A receptor 4 (Q03137 whole entry): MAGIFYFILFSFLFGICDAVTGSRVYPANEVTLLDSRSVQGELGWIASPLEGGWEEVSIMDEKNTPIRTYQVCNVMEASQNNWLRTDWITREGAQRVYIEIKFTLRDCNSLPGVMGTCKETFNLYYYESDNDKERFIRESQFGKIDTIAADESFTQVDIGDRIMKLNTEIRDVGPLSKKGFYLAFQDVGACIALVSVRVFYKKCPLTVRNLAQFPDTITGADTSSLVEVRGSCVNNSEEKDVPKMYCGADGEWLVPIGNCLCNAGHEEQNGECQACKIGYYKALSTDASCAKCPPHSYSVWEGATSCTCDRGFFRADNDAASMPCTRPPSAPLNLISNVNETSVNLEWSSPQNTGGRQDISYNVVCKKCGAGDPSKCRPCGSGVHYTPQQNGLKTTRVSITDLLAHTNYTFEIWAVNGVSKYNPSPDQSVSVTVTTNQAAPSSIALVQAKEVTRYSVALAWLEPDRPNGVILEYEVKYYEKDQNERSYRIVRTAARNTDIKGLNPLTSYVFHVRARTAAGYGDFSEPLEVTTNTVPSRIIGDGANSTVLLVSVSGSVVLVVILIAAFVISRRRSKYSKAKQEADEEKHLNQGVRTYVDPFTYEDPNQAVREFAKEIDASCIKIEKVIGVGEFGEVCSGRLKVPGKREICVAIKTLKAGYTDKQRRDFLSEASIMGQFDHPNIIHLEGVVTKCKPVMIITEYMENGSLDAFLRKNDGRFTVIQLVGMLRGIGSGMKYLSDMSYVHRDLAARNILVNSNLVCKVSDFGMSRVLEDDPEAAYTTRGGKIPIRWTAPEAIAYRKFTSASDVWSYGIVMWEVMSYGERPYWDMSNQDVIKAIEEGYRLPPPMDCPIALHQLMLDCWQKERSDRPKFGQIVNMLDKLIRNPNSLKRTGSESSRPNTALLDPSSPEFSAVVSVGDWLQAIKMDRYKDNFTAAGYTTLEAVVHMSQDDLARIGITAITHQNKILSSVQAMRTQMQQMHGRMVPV

Structure (SMILES): O=C(CCN1C(=O)/C(=C/C=C/c2ccccc2)SC1=S)Nc1nccs1
IC50 (Ephrin type-A receptor 4): > 100 µM (not active)

Structure (SMILES): CCOCCc1nnc(NC(=O)c2ccc(OC)c(OC)c2)s1
EC50 [2]: 6.13 µM (active)

Structure (SMILES): CC(C)c1ccc2c(c1)C1(NN=C(c3ccccc3)S1)C(=O)N2 (stereo not drawn)
EC50 [3]: < 0.06 µM (active) | IC50 [4]: 12.6 µM (active) | EC50 (Streptococcus): 2.81 µM (active) | Absolute IC50 (XBP1) (X-box-binding protein 1): 10 µM | EC50 [5]: 6.8 µM (active) | EC50 [6]: 1.42 µM (active) | EC50 [7]: 0.333 µM (active)

Structure (SMILES): CCc1ccc(Nc2n[n+](-c3ccccc3)c(-c3ccc(N(CC)CC)cc3)s2)cc1
EC50 [5]: > 60 µM (not active) | EC50 [7]: 0.408 µM (active) | IC50 [10]: 5.48 µM (active)

Now from value to molecule:

IC50 [1]: > 50 µM (not active) | IC50 (Prothrombin): > 50 µM (not active) | IC50 (Protein Tat): > 100 µM (inconclusive)
Structure (SMILES): Nc1cccc2c1=NC1(CCCCC1)[N+]=2[O-]

EC50 [8]: > 50 µM (not active)
Structure (SMILES): O=C(NCC1(c2ccccc2)CCCC1)C(=O)N1CCOCC1

IC50 [9]: > 100 µM (not active)
Structure (SMILES): O=C(Nc1ccccc1)c1ccc(NCC2CCCO2)c(S(=O)(=O)N2CCOCC2)c1 (stereo not drawn)

AC50 (Cytochrome P450 2C19): 2.51 µM (inconclusive)
Structure (SMILES): COC(=O)NC(c1cccc(F)c1)[C@]1(C(C)=O)CCCC1=O (stereo partly drawn)
